Reference: patent publication US12599592B2, “Therapeutic small molecules for treatment of pulmonary hypertension” (UNIVERSITY OF PITTSBURGH—OF THE COMMONWEALTH SYSTEM OF …, priority 2020, dated 2026)

How the values were obtained:
Assay type in all cases: cell-based, human
PAECs [1] = assay: Apoptosis by caspase-3/7 activity in PAECs
Description: Cell culture: Primary human pulmonary artery endothelial cells (PAECs) and human pulmonary artery smooth muscle cells (PASMCs) were purchased from Lonza (302-05A, CC-2581). Of note, the same two male donors were the source of all PAECs in the experiments shown. Two additional male donors were the source for all PASMCs in the experiments shown. Cells from these and any donors were characterized by flow cytometry for consistent expression of cell surface markers and by RNA (RT-qPCR) analysis of endothelial and smooth muscle gene expression. PAECs were cultured in EGM-2 media (CC-3121) along with supplements (CC-4133), and PASMCs were cultured in SmGM-2 culture media (Lonza, CC-3182) at 5% CO2 in a humidified incubator.
Human recombinant galectin-8 (1305-GA-050) was purchased from R&D Systems and was used at a working concentration of 30 nM.
For hypoxia exposure, cells were plated in 6-well cell culture plates at 1×10^5 cells/well, grown for 24 hr and placed into a normobaric hypoxia chamber (1% O2) for 24 h under specific treatment conditions. Namely, for I-BET and siLGALS8 exposures, cells were either pre-treated with I-BET/vehicle control (VC) or transfected with siLgals8/Scr for 24 h. Then, they were cultured in basal media at 1% 02. After 24 h, caspase activity and mitochondrial superoxide levels were quantified. To detect activation status of pSTAT1/STAT1 by immunoblot, cells were exposed to 8 h of hypoxia.
(§1) In IL-6/sIL-6R+hypoxia experiments, a human recombinant IL-6/IL-6R alpha protein chimera (25 ng/ml, Millipore) was administered at 70-80% confluency for 48 h in complete media along with vehicle control (DMSO, Sigma-41639). BRD2889 (1 uM) vs. vehicle control were added, as indicated, and placed into a hypoxia chamber for 24 h. The hypoxia chamber (modular incubator chamber) was obtained from Billups-Rothenberg Inc. (Del Mar, Calif) and placed in regulated CO2 incubator at 37° C.
Cellular apoptosis: Caspase-3/7 activity was quantified using the Caspase-Glo 3/7 Assay (Promega), according to manufacturer's instructions. Caspase-3/7 activity was normalized to total protein content determined by BCA method (Thermo Fisher Scientific).

PAECs [2] = assay: BrdU proliferation assay in PAECs
Method: BrdU growth assay: Cell proliferation was assayed relative to day 0 using a BrdU Cell Proliferation Assay Kit (#6813, Cell Signaling) according to the manufacturer's protocol after incubation for 2 h with BrdU.

GST activity = GST activity in PASMCs; details: IL-6/R + hypoxia, BRD2889 1 uM
Method: as §1

mitochondrial Complex I = assay: Mitochondrial Complex I activity in PASMCs; details: IL-6/sIL-6R + hypoxia
Method: as §1
Mitochondria isolation: Mitochondrial fraction from cultured PAECs with drug and siGSTP1 using the Mammalian Mitochondria Isolation Kit for Tissue & Cultured Cells (Biovision, Inc.) according to the manufacturer's instructions.
Measurement of mitochondrial complex activities: Complex I activity of isolated mitochondria were measured using Complex I Enzyme Activity Microplate assay kit (Abcam, ab109721) according to the manufacturer's protocol. These enzymes were captured within the wells of the microplate coated by the corresponding complex enzyme antibody, and activities were detected colorimetrically.

[3] = hypoxic PAECs with siRNA knockdown of ISCU

For `COc1ccc(C#CC2CCCN(C(=O)/C=C/c3cc(OC)c(OC)c(OC)c3)C2=O)cc1` (centres unmarked) [BRD2889], the “apoptosis (caspase 3/7)” value (PAECs [1]; PAECs, IL-6/sIL-6R + hypoxia) was “reduced apoptosis”, the “apoptosis (caspase 3/7 activity)” value (PAECs [1]; hypoxic PAECs) was “reversed the increase” and the “hypoxic increase in apoptosis” value (PAECs [1]; [3]) was “did not reverse”. For the same molecule, the “proliferation (BrdU)” value (PAECs [2]; PAECs, IL-6/sIL-6R + hypoxia) was “increased proliferation”, the “proliferation (BrdU incorporation)” value (PAECs [2]; hypoxic PAECs) was “reversed the decrease” and the “hypoxia-induced decrease in proliferation” value (PAECs [2]; [3]) was “did not reverse”. For the same molecule, the GST activity (GST activity) was “did not affect” and the “mitochondrial Complex I activity” value (mitochondrial Complex I) was “did not affect”.
